Columns and labels:
[1] = target: T1, Cow milk Xanthine Oxidase (Bos taurus, UniProt P80457); assay: In vitro xanthine oxidase inhibition (oxidation of xanthine, absorbance at OD 290 nm); assay type: biochemical; conditions: xanthine 250 μM, 50 mM phosphate buffer pH 7.5, 30° C. 10 minutes
T1 construct: Cow milk Xanthine Oxidase (Roche); purchased Roche; host or cells: cow milk
Method: The xanthine oxidase inhibiting action (in vitro test) of the compound of the invention was confirmed by measuring inhibition of oxidation of xanthine by xanthine oxidase, as described in Example 26. As is clear from Tables 11 and 12, the compounds of the invention show excellent xanthine oxidase inhibiting action.
The test compound was dissolved in dimethylsulfoxide and diluted with 50 mM phosphate buffer (pH 7.5), to give a solution of a predetermined concentration.
125 μL of each of the solutions of the test compound having different concentrations was added to 1 mL of a solution of Xanthine (SIGMA, 250 μM) in the 50 mM phosphor buffer (pH 7.5). The mixture was then pre-incubated at 30° C. for 5 min. Subsequently, to the pre-incubated mixture was added 125 μL of Cow milk Xanthine Oxidase (Roche) diluted with the 50 mM phosphate buffer (pH 7.5) to 70 mU/mL, and the mixture was subjected to reaction at 30° C. for 10 minutes. Then, 1N hydrochloric acid (200 μL) was added to the reaction mixture to terminate the reaction. Subsequently, absorbance at OD 290 nm was measured by means of a spectrophotometer (Shimadzu UV-160A), to obtain a inhibition ratio. The measured inhibition ration was used to obtain IC50.
The inhibition ratio was calculated according to the following formula:
Inhibition ratio (%)=[1−(B−C)/(A−C)]×100 • A: absorbance of control • B: absorbance measured on a sample containing test compound • C: absorbance of blank

[2] = tested on: in-plasma uric acid value; assay: In vivo test: in-plasma uric acid value-inhibition ratio after single oral administration to mouse; conditions: in-plasma uric acid inhibition ratio as activity value relative to TMX-67 (0.3 mg/kg); unfasted ICR mouse, single oral 0.3 mg/kg or 3 mg/kg, blood one hour after administration
Method: The xanthine oxidase inhibiting action was further confirmed in viva tests by measuring the uric acid concentration in a plasma obtained from mouse into which the compound of the invention had been orally administered. See Example 27 and Tables 11 and 12. The test compound suspended in 1% methylcellulose solution in an amount of 0.3 mg/kg or 3 mg/kg was administered to unfasted ICR mouse (7 W) by forced single oral administration. The blood was collected from main artery from the mouse under etherization after one hour from the administration. The plasma was separated from the collected blood in the conventional manner. The plasma was then subjected to measurement of uric acid value by the enzyme method by means of an automatic analytical apparatus ([…]), to obtain an in-plasma uric acid value-inhibition ratio in the test sample-administered group as compared with a ratio obtained in the normal group. Based on the obtained in-plasma uric acid inhibition ratio, activity values (%) relative to activity values obtained in the simultaneously conducted tests using TMX-67 (0.3 mg/kg).

T1 sequence (P80457 whole entry): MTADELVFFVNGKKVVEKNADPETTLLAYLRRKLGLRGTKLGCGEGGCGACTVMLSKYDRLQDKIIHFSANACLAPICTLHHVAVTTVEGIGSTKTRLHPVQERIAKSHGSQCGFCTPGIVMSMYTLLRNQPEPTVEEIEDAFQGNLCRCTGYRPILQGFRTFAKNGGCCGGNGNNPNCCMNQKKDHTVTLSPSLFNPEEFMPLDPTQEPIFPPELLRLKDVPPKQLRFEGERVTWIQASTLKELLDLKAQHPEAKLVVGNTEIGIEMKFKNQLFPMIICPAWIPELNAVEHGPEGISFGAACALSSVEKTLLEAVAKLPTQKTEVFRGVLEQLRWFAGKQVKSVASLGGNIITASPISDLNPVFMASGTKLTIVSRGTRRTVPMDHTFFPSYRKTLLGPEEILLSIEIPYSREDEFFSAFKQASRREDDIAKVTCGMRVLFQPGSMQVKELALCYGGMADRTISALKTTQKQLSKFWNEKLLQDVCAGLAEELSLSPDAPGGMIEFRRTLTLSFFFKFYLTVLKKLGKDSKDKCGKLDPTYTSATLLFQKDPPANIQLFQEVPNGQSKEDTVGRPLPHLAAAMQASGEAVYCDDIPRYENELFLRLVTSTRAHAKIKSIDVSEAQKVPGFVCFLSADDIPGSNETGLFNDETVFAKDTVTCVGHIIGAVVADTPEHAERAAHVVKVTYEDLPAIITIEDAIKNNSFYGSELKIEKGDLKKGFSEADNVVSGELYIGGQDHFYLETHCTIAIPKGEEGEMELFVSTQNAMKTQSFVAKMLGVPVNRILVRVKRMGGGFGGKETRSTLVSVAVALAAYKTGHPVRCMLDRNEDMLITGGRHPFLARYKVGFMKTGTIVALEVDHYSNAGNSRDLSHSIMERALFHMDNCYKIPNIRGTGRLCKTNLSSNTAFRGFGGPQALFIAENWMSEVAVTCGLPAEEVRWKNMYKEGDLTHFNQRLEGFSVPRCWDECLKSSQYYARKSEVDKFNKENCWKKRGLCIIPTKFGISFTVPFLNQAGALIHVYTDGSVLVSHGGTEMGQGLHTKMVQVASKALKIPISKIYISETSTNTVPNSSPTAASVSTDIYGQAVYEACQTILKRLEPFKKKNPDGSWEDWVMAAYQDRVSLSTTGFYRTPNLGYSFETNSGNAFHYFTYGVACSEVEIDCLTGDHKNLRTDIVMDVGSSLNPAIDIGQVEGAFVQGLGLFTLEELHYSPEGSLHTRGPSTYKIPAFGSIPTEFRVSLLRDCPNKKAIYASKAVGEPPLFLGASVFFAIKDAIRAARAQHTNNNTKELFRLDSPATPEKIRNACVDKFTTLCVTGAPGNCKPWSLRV

Compound | IC50 [1] [nM] | In Vivo (%) TMX-67 (0.3 mg/kg) [2] [%] | melting point
N#Cc1cc(-c2nc3cncnc3s2)ccc1Oc1ccc(F)cc1 [Example 1, 2-[4-(4-fluorophenoxy)-3-cyanophenyl]thiazolo[5,4-d]pyrimidine] | 280 | 132 | 175 to 177 °C
N#Cc1cc(-c2nc3cncnc3s2)ccc1Oc1ccccc1 [Example 2, 2-[3-Cyano-4-phenoxyphenyl)thiazolo[5,4-d]-pyrimidine] | 139 | 114 | 154 to 156 °C
N#Cc1cc(-c2nc3cncnc3s2)ccc1Oc1cccnc1 [Example 3, 2-[3-Cyano-4-(3-pyridyloxy)phenyl]thiazolo-[5,4-d]pyrimidine] | 273 | 90 | 210 to 212 °C
N#Cc1cc(-c2nc3cncnc3[nH]2)ccc1Oc1ccc(F)cc1 [Example 4, 8-[3-Cyano-4-(4-fluorophenoxy)phenyl]-9H-purine] | 33 | 33 | > 250 °C
N#Cc1cc(-c2nc3cncnc3s2)ccc1Oc1ccccc1F [Example 5, 2-[3-Cyano-4-(2-fluorophenoxy)phenyl]-thiazolo[5,4-d]pyrimidine] | 103 | 141 | 195 to 196 °C
N#Cc1cc(-c2nc3cncnc3s2)ccc1Oc1cccc(F)c1 [Example 6, 2-[3-Cyano-4-(3-fluorophenoxy)phenyl]-thiazolo[5,4-d]pyrimidine] | 389 | 127 | 189 to 190 °C
N#Cc1cc(-c2nc3cncnc3s2)ccc1Sc1ccc(F)cc1 [Example 7, 2-[3-Cyano-4-(4-fluorophenylthio)phenyl]-thiazolo[5,4-d]pyrimidine] | 239 | 109 | 190 to 195 °C
N#Cc1cc(-c2nc3cncnc3s2)ccc1Oc1ccccc1O [Example 8, 2-[3-Cyano-4-(2-hydroxyphenoxy)phenyl]thiazolo[5,4-d]pyrimidine] | 103 | 52 | 255 to 256 °C
N#Cc1cc(-c2nc3cncnc3s2)ccc1Oc1ccc(Cl)cc1 [Example 9, 2-[4-(4-Chlorophenyloxy)-3-cyanophenyl]-thiazolo[5,4-d]pyrimidine] | 298 | 120 | 179 to 180 °C
N#Cc1cc(-c2nc3cncnc3s2)ccc1Sc1ccccc1F [Example 10, 2-[3-Cyano-4-(2-fluorophenylthio)phenyl]-thiazolo[5,4-d]pyrimidine] | 127 | 115 | 178 to 180 °C
N#Cc1cc(-c2nc3cncnc3s2)ccc1Sc1ccccc1 [Example 11, 2-(3-Cyano-4-phenylthiophenyl)thiazolo[5,4-d]pyrimidine] | 196 | 110 | 173 to 176 °C
C=CCOc1ccc(-c2nc3cncnc3s2)cc1C#N [Example 12, 2-(4-Allyloxy-3-cyanophenyl)thiazolo[5,4-d]-pyrimidine] | 310 | 52 | 202.6 to 207.6 °C
N#Cc1cc(-c2nc3cncnc3s2)ccc1N1CCOCC1 [Example 13, 2-(3-Cyano-4-morpholin-4-ylphenyl)thiazolo-[5,4-d]pyrimidine] |  | 40 | 232 to 234 °C (dec.)
CN1CCN(c2ccc(-c3nc4cncnc4s3)cc2C#N)CC1 [Example 14, 2-[3-Cyano-4-(4-methyl-1-piperazinyl)phenyl]thiazolo[5,4-d]pyrimidine] |  | 43 | 163 to 165 °C (dec.)
N#Cc1cc(-c2nc3cncnc3s2)ccc1Oc1cccc(Cl)c1 [Example 15, 2-[4-(3-Chlorophenyloxy)-3-cyanophenyl]-thiazolo[5,4-d]pyrimidine] |  | 87 | 171 to 173 °C
N#Cc1cc(-c2nc3cncnc3s2)ccc1N1CCSCC1 [Example 16, 2-[3-Cyano-4-(thiomorpholin-4-yl)phenyl]-thiazolo[5,4-d]pyrimidine] |  | 34 | 170 to 175 °C (dec.)
N#Cc1cc(-c2nc3cncnc3s2)ccc1Oc1ccccc1Cl [Example 17, 2-[4-(2-Chlorophenyloxy)-3-cyanophenyl]thiazolo[5,4-d]pyrimidine] |  | 86 | 209 to 211 °C
N#Cc1cc(-c2nc3cncnc3o2)ccc1Oc1ccc(F)cc1 [Example 18, 2-[3-Cyano-4-(4-fluorophenoxy)phenyl]oxazolo[5,4-d]-pyrimidine] |  | 71 | 
N#Cc1cc(-c2nc3cncnc3s2)ccc1Sc1cccc(F)c1 [Example 19, 2-[3-Cyano-4-(3-fluorophenylthio)phenyl]-thiazolo[5,4-d]pyrimidine] |  | 171 | 189 to 190 °C
N#Cc1cc(-c2nc3cncnc3s2)ccc1Oc1ccccc1N [Example 20, 2-[4-(2-Aminophenoxy)-3-cyanophenyl]thiazolo[5,4-d]-pyrimidine] | 58 |  | 256 to 259 °C (dec.)
Cl.N#Cc1cc(-c2nc3cncnc3s2)ccc1Oc1cccnc1 [Example 21, 2-[3-Cyano-4-(3-pyridyloxy)phenyl]thiazolo-[5,4-d]pyrimidine hydrochloride] |  | 68 | 204 to 206 °C
N#Cc1cc(-c2nc3cncnc3s2)ccc1Oc1ccc(O)cc1 [Example 22, 2-[3-Cyano-4-(4-hydroxyphenoxy)phenyl]thiazolo[5,4-d]pyrimidine] | 72 |  | > 250 °C
N#Cc1cc(-c2nc3cncnc3s2)ccc1Oc1ccc(O)cc1.[K] [Example 25, 2-[3-Cyano-4-(4-hydroxyphenoxy)phenyl]thiazolo[5,4-d]pyrimidine potassium salt] |  | 35 | 

— patent US20090149452A1, “XANTHINE OXIDASE INHIBITOR” (NIPPON CHEMIPHAR CO., LTD., priority 2005, published 2009)
